The values below come from patent US7947626B2 (priority 2006, dated 2011).

The subject of experiment [1] is primary cortical stem cell and progenitor cell derived neural networks. Format: cell-based, rat.
In experiment [2] the test system is passaged cortical stem and progenitor cell derived neural networks. Format: cell-based, rat.

In the case of `N#Cc1cc2c(cc1[N+](=O)[O-])=NC(=O)C(=O)N=2` [CNQX, 6-cyano-7-nitroquinoxaline-2,3-dione], the “mean spike rate (MSR) response of the network” value (“mean spike rate (MSR) response” for short) in experiment [1] is recorded as “decrease in MSR”. In addition, in experiment [2], the “mean spike rate (MSR) response” value is “further decrease in activity” and the “raw action potential spike activity, single channel 10 second trace” value is on record as “near total blockade of action potentials”.

Regarding `NC(CCCP(=O)(O)O)C(=O)O` (racemic) [APV, DL-2-amino-5-phosphonovaleric acid], the “mean spike rate (MSR) response” value in experiment [1] was “No additional decrease in network activity”. Besides, in experiment [2], the “mean spike rate (MSR) response” value is listed as “decrease in MSR”; the “raw action potential spike activity, single channel 10 second trace” value was “incremental effects of APV on both spike rate and burst pattern”.

Consider cadmium chloride, for which the “mean spike rate (MSR) response” value in experiment [2] is given as “responsive”.
